Source: patent US7637980B2, “Method of increasing photosynthesis in plants comprising an exposure thereof to lipochitooligosaccharides and compositions therefor” (McGill University, priority 1999, dated 2009)

Experiments:
Type in all cases: in vivo
soybean = test: Foliar spray of LCO on yield of soybean (2000 cropping season); settings: for Seed yield/plant / Seed yield: 0% seed moisture; for Seed yield: assuming 500,000 plants per ha
Description: LCO 10^−6 M improved the yield by about 60%. The increase in yield was due to the increase in the number of pods/plant. The 100-seed weight was not increased by LCO spray during the 2000 field season. Also of note, the LCO application in the field experiments in year 2000 were by spraying whole plots, as opposed to individual plants (1999). Thus, the LCO effects described in the present invention are also observable when using large production application methods.

[1] = test system: canola (Brassica napus cv Springfield); test: Photosynthesis of canola after LCO spray, greenhouse
Method: Seeds of rice (Oryza sativa cv Cypress), canola (Brassica napus cv Springfield), corn (Zea mays cv Pioneer 3921) and melon (Cucumis melo cv Nova) were surface sterilized with 2% sodium hypochlorite for 3-4 min, washed with several changes of sterile distilled water and planted in plastic pots (15 cm dia) containing promix (Premier Brands Inc., New Rochelle, N.Y., USA).
(§1) Concentrations of LCO (10^−6 M-10^−12 M) were made with distilled water containing 0.02% Tween 20. A control treatment, containing 0.02% Tween 20, but no LCO was also applied. Since the rates of growth and development differed among the plant species used in the experiments, spray treatment was conducted at different times after planting In general, the spray was applied when the plants were big enough to allow easy measurements of leaf photosynthetic rates. The following are the ages of the plants when the sprays were conducted: soybean 21 days after planting (DAP), corn 25 DAP, rice 45 DAP, melon (35 DAP) and canola 30 DAP. The plants were sprayed with LCO solutions until dripping. The sprays were applied with an atomizer (Nalgene, USA). Each plant required 2-3 mL of spray solution. Each treatment was replicated at least five times and organized on the green house bench in a randomized complete block design. Each experiment (with each crop species) was repeated at least twice.
(§2) Photosynthesis was recorded every 24 h using a Li-Cor 6400 portable photosynthesis system (Li-Cor Inc., Lincoln, Neb., USA) for 6 days. In the case of soybean the photosynthesis in the second nodal leaf from the top was recorded while in the other species used in the photosynthetic rate was measured for the top-most fully expanded leaf. Soybean plants were harvested after seven days of LCO treatment and dried at 80° C. for 48 h. Data were analyzed with the Statistical Analysis System (SAS Inc., N.C., USA). Percent increase in photosynthesis over the control was calculated.

soybean (cv Bayfield) = test: Leaf area and shoot dry weight of soybean after LCO spray, greenhouse; settings: seven days after treatment
Method: Soybean (cv Bayfield) seeds were surface sterilized with 2% sodium hypochlorite for 3-4 minutes, washed with several changes of sterile distilled water and germinated in plastic trays containing sterile vermiculite. Seedlings at the two-leaf stage, about seven days of planting, were transplanted into 15 cm plastic pots containing promix (Premier Brands Inc., New Rochelle, N.Y., USA). Pots were placed in a greenhouse maintained at 25±2° C. with a day/night cycle of 16/8 h. Plants were watered as required.
as §1, §2

apple (cv Empire) = test: Photosynthesis of field-grown apple after LCO spray
Method: These experiments were conducted at the horticultural research facility of McGill University, Ste-Anne-de-Bellevue, Quebec, Canada during July 2000. LCO of different concentrations (10^−8, and 10^−10M) were prepared as described above. Branches of apple (cv Empire) and Grapes (cv De Chaunac) were sprayed with LCO and the photosynthesis was observed every 24 h for five days with a Li-Cor 6400 portable photosynthesis system (Li-Cor Inc., USA). Each treatment was applied to three branches from the same plant. Care was taken to ensure that the branches were on the same level and orientation. Part of each branch was sprayed with LCO and the remaining part served as a control. The control portion of the branch was sprayed with distilled water containing the same amount of Tween 20 as the LCO treatment solution. Observations were taken on 15 leaves per replicate for each treatment. For both apple and grape the entire procedure was repeated twice on two different plants.

Nod Bj V (C18:1, MeFeu)
100-seed weight (soybean; LCO 10^−6 M): 17.4 g | Pod weight/plant (soybean; LCO 10^−6 M): 31.4 g | Pods/plant (soybean; LCO 10^−6 M): 46.8 | Seeds/plant (soybean; LCO 10^−6 M): 118.0 | Seed yield/plant (soybean; LCO 10^−6 M): 21.0 g | Seed yield (soybean; LCO 10^−6 M): 10.5 t/ha | 100-seed weight (soybean; LCO 10^−8 M): 17.8 g | Pod weight/plant (soybean; LCO 10^−8 M): 24.1 g | Pods/plant (soybean; LCO 10^−8 M): 39.1 | Seeds/plant (soybean; LCO 10^−8 M): 96.4 | Seed yield/plant (soybean; LCO 10^−8 M): 16.2 g | Seed yield (soybean; LCO 10^−8 M): 8.1 t/ha | 100-seed weight (soybean; LCO 10^−10 M): 18.1 g | Pod weight/plant (soybean; LCO 10^−10 M): 29.1 g | Pods/plant (soybean; LCO 10^−10 M): 47.7 | Seeds/plant (soybean; LCO 10^−10 M): 117.7 | Seed yield/plant (soybean; LCO 10^−10 M): 21.8 g | Seed yield (soybean; LCO 10^−10 M): 10.9 t/ha | 100-seed weight (soybean; LCO spray, 2000 field season): not increased | intercellular CO2 concentration [1]: unaffected | stomatal conductance [1]: increases | transpiration [1]: increases | increase in photosynthesis ([1]; in general): 10-20% | Leaf area (soybean (cv Bayfield); 10^−6 M): 223.6 cm^2 | Shoot dry weight (soybean (cv Bayfield); 10^−6 M): 1065.8 mg | Leaf area (soybean (cv Bayfield); 10^−7 M): 193.6 cm^2 | Shoot dry weight (soybean (cv Bayfield); 10^−7 M): 1135.2 mg | Leaf area (soybean (cv Bayfield); 10^−8 M): 217.6 cm^2 | Shoot dry weight (soybean (cv Bayfield); 10^−8 M): 1095.7 mg | Leaf area (soybean (cv Bayfield); 10^−9 M): 194.3 cm^2 | Shoot dry weight (soybean (cv Bayfield); 10^−9 M): 999.9 mg | Leaf area (soybean (cv Bayfield); 10^−10 M): 195.3 cm^2 | Shoot dry weight (soybean (cv Bayfield); 10^−10 M): 1012.3 mg | Leaf area (soybean (cv Bayfield); 10^−11 M): 202.6 cm^2 | Shoot dry weight (soybean (cv Bayfield); 10^−11 M): 931.6 mg | Leaf area (soybean (cv Bayfield); 10^−12 M): 230.3 cm^2 | Shoot dry weight (soybean (cv Bayfield); 10^−12 M): 1060.8 mg | shoot dry weights vs control plants (soybean (cv Bayfield); p<0.05): higher | leaf areas vs control plants (soybean (cv Bayfield); p=0.09): only increased numerically | Ci (apple (cv Empire)): without any effect | stomatal conductance (apple (cv Empire)): increases | transpiration (apple (cv Empire)): increased | photosynthetic rate (apple (cv Empire); 10^−8 M LCO, five days after treatment): 14.1 μmol CO2 m^−2s^−1
